Assay results published in patent US9796753B2, “N-substituted indenoisoquinolines and syntheses thereof” (Purdue Research Foundation, priority 2005, dated 2017).
Like-named read-outs stand apart in the source and are kept apart here. Values belong to the compound of their own block, whether it stands above or below them.

What was measured:
[1] = system: all human cancer cell lines successfully tested; assay: NCI screen mean graph midpoint (MGM) for growth inhibition; assay type: cell-based; conditions: for GI50: Homo sapiens, read-out: MGM GI50
Summary of the method: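 NCI60 panel cells exposed to compound at 100, 10, 1, 0.1 and 0.01 μM for 48 h, then sulforhodamine B staining. Percentage growth versus control plotted against log concentration; MGM is the midpoint across all lines tested.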

[2] = target: recombinant TDP1 (Homo sapiens, UniProt Q9NUW8); assay: Gel-based assay measuring the inhibition of recombinant TDP1; assay type: biochemical
Chain of recombinant TDP1 (Q9NUW8 whole entry): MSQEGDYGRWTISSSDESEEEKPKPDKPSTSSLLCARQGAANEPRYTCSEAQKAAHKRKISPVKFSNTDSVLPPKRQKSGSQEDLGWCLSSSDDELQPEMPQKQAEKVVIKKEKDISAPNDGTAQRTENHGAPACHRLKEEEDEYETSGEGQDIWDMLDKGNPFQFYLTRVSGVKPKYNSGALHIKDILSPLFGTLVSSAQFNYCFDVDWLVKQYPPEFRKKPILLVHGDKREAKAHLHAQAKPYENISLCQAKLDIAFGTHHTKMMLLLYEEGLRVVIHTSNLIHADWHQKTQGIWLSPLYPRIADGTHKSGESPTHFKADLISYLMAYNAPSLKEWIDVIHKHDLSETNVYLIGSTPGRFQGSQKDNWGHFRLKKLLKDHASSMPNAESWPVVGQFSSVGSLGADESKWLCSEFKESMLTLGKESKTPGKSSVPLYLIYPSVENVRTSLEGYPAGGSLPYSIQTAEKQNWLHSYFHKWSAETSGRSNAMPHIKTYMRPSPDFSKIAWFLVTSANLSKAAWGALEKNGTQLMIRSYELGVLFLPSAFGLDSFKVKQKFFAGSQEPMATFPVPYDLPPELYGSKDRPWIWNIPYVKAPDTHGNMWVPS
Protocol: A 5′-[^32P]-labeled single-stranded DNA oligonucleotide containing a 3′-phosphotyrosine (N14Y) was generated as described by Dexheimer et al. (J. Med. Chem. 2009, 52, 7122-7131). The DNA substrate was then incubated with 5 μM recombinant TDP1 in the absence or presence of inhibitor for 15 min at room temperature in a buffer containing 50 mM Tris HCl, pH 7.5, 80 mM KCl, 2 mM EDTA, 1 mM DTT, 40 μg/ml BSA and 0.01% Tween-20. Reactions were terminated by the addition of 1 volume of gel loading buffer [99.5% (v/v) formamide, 5 mM EDTA, 0.01% (w/v) xylene cyanol, and 0.01% (w/v) bromophenol blue]. Samples were subjected to a 16% denaturing PAGE and gels were exposed after drying to a PhosphorImager screen (GE Healthcare). Gel images were scanned using a Typhoon 8600 (GE Healthcare) and densitometric analyses were performed using the ImageQuant software (GE Healthcare).
The TDP1 inhibitory activities of the O-2-substituted indenoisoquinolines were measured by determining their abilities to inhibit the hydrolysis of the phosphodiester linkage between tyrosine and the 3′-end of a DNA oligonucleotide substrate and thus prevent the generation of an oligonucleotide with a free 3′-phosphate (N14P, Scheme 13). Therefore, the disappearance of the gel band for N14P indicates TDP1 inhibition.
Tyrosyl-DNA phosphodiesterase 1 (TDP1) is a DNA repair enzyme that repairs cytotoxic DNA damage induced by Top1 inhibitors.

[3] = target: T1, Human recombinant Top1 (Homo sapiens, UniProt P11387); assay: Topoisomerase 1-mediated DNA cleavage reactions (B), 117-bp DNA oligonucleotide; assay type: biochemical; set-up: key to Top1 inhibitory activity (level): 0, no detectable activity; +, weak activity; ++, similar activity to compound 33; +++, greater activity than 33; ++++, equipotent to 32; Ambiguous scores (e.g., between two values) are designated with parentheses (e.g., ++(+) would be between ++ and +++); key to Top1 (compound-induced DNA cleavage due to Top1 inhibition): 0, no detectable activity; +, weak activity; ++, similar activity to compound 5; +++, greater activity than 34; ++++ , equipotent to 32; The (+) ranking indicates the activity lies between two given values; conditions: Table 5; for Top1 inhibitory activity (level): relative to compounds 32 and 33; for Top1 (compound-induced DNA cleavage due to Top1 inhibition): semiquantitative scale relative to 1 μM camptothecin (32) or MJ-III-65 (34)
T1 construct: made in house
T1 sequence (P11387 1-765): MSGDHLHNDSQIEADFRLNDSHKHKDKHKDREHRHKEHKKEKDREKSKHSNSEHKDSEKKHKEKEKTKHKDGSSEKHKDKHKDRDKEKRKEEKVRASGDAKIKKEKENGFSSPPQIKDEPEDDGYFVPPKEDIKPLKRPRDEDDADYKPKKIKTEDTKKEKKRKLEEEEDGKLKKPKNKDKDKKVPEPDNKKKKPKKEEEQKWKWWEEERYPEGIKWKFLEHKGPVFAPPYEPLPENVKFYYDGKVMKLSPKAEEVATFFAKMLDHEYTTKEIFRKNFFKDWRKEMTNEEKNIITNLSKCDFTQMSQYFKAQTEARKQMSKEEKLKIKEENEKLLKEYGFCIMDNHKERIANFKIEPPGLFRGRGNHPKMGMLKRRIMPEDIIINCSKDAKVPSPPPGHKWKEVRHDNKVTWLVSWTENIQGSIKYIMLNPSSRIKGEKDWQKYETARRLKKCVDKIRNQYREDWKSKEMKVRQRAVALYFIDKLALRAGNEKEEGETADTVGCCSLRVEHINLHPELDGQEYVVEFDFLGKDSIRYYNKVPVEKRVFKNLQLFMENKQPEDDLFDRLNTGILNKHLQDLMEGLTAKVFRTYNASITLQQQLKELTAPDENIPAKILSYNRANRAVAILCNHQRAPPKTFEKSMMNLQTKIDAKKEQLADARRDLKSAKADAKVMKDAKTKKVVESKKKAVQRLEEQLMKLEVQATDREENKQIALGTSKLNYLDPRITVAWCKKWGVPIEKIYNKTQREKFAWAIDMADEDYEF
Protocol: Human recombinant Top1 was purified from baculovirus as described in Bailly, C. Curr. Med. Chem. 2000, 7, 39-58. DNA cleavage reactions were prepared as previously reported with the exception of the DNA substrate in Saltz, et al. Oncologist 1997, 2, 402-409.
Approximately 2 nM radiolabeled DNA substrate was incubated with recombinant Top1 in 20 μL of reaction buffer [10 mM Tris-HCl (pH 7.5), 50 mM KCl, 5 mM MgCl2, 0.1 mM EDTA, and 15 μg/mL BSA] at 25° C. for 20 min in the presence of various concentrations of compounds. […] Aliquots of each reaction mixture were subjected to 20% denaturing PAGE. Gels were dried and visualized using a phosphoimager and ImageQuant software (Molecular Dynamics).
All of the new indenoisoquinoline derivatives with C-2 side chains were tested in Top1-mediated DNA cleavage assays. For this purpose, a ^32P 3′-end labeled 117-bp DNA fragment was incubated with Top1 and four 10-fold dilutions starting from 100 μM of a tested compound. The DNA fragments were separated on 20% PAGE denaturing gels. The Top1 inhibitory activities were assigned on the basis of the visual inspection of the number and intensities of the gel bands corresponding to Top1-mediated DNA cleavage fragments. […] Ambiguous scores (e.g., between two values) are designated with parentheses (e.g., ++(+) would be between ++ and +++).

[4] = system: CNS SF-539; assay: COMPARE screening (NCI human cancer cell line screen), cytotoxicity GI50; assay type: cell-based; conditions: Homo sapiens, CNSSF-539, read-out: cytotoxicity (GI50) CNS SF-539
Summary of the method: (§1)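 Cells of the NCI60 panel were exposed to compound at 100, 10, 1, 0.1 and 0.01 μM for 48 h, then stained with sulforhodamine B. Optical density relative to control was plotted as percentage growth versus log10 concentration.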

[5] = system: renal SN12C; assay: as above; assay type: cell-based; conditions: Homo sapiens, SN12C, read-out: cytotoxicity (GI50) renal SN12C
Summary of the method: as §1

[6] = system: lung HOP-62; assay: as above; assay type: cell-based; conditions: Homo sapiens, HOP-62, read-out: cytotoxicity (GI50) lung HOP-62
Summary of the method: as §1

[7] = system: melanoma UACC-62; assay: as above; assay type: cell-based; conditions: Homo sapiens, UACC-62, read-out: cytotoxicity (GI50) melanoma UACC-62
Summary of the method: as §1

[8] = system: ovarian OVCAR-3; assay: as above; assay type: cell-based; conditions: Homo sapiens, OVCAR-3, read-out: cytotoxicity (GI50) ovarian OVCAR-3
Summary of the method: as §1

[9] = system: prostate DU-145; assay: as above; assay type: cell-based; conditions: Homo sapiens, DU-145, read-out: cytotoxicity (GI50) prostate DU-145
Summary of the method: as §1

[10] = system: breast MDA-MB-435; assay: as above; assay type: cell-based; conditions: Homo sapiens, MDA-MB-435, read-out: cytotoxicity (GI50) breast MDA-MB-435
[11] = Table 7, scores correspond to IC50 ranges, read-out: TDP1 inhibition
[12] = Table 5, determined in duplicate, read-out: TDP1 (IC50, semiquantitative scale)
[13] = Table 5, determined in duplicate, read-out: TDP1 inhibitory activity (potency score)

Structure (SMILES): O=C1c2cc3c(cc2-c2c1c1ccc(Cl)cc1c(=O)n2CCCn1ccnc1)OCO3 [Compound 39]
GI50 [1]: 0.024 µM | IC50 [2, 11]: 37 to 111 µM

Structure (SMILES): CCNCCCOc1cc2c3c(n(CCCN4CCOCC4)c(=O)c2cc1OC)-c1cc2c(cc1C3=O)OCO2 [Compound 24, 2-(3-(Ethylamino)propoxy)-3-methoxy-6-(3-morpholinopropyl)-5H-[1,3]dioxolo [4′,5′:5,6]indeno[1,2-c]isoquinoline-5,12(6H)-dione]
Top1 inhibitory activity (level) [3]: +++ | Top1 (compound-induced DNA cleavage due to Top1 inhibition) [3]: +++ | IC50 [2, 12]: 12 to 37 µM | IC50 [2, 13]: 12 to 37 µM

Structure (SMILES): COc1cc2c(=O)n(CCCN3CCOCC3)c3c(c2cc1OCCCBr)C(=O)c1cc2c(cc1-3)OCO2 [Compound 19, 2-(3-Bromopropoxy)-3-methoxy-6-(3-morpholinopropyl)-5H-[1,3]dioxolo[4′,5′: 5,6]indeno[1,2-c]isoquinoline-5,12(6H)-dione]
melting point: 197 to 199 °C

Structure (SMILES): O=C1c2cc3c(cc2-c2c1c1cc(F)c(F)cc1c(=O)n2CCCn1ccnc1)OCO3 [Compound 42]
GI50 [1]: 0.03 µM | IC50 [2, 11]: > 111 µM

Structure (SMILES): O=C1c2cc3c(cc2-c2c1c1ccc(F)cc1c(=O)n2CCCn1ccnc1)OCO3 [Compound 36]
GI50 [1]: 0.011 µM | IC50 [2, 11]: > 111 µM

Structure (SMILES): COc1cc2c(=O)n(CCCN3CCOCC3)c3c(c2cc1OCCCN1CCN(C)CC1)C(=O)c1cc2c(cc1-3)OCO2 [Compound 26, 3-Methoxy-2-(3-(4-methylpiperazin-1-yl)propoxy)-6-(3-morpholinopropyl)-5H-[1,3]dioxolo[4′,5′:5,6]indeno[1,2-c]isoquinoline-5,12(6H)-dione]
Top1 inhibitory activity (level) [3]: +++ | Top1 (compound-induced DNA cleavage due to Top1 inhibition) [3]: +++ | TDP1 inhibitory activity (in words) [2]: no TDP1 inhibitory activity was observed | IC50 [2, 12]: > 111 µM

Structure (SMILES): O=C1c2cc3c(cc2-c2c1c1cc(Cl)c(Cl)cc1c(=O)n2CCCn1ccnc1)OCO3 [Compound 44]
GI50 [1]: 0.017 µM | IC50 [2, 11]: > 111 µM

Structure (SMILES): COc1cc2c(=O)n(CCCN3CCOCC3)c3c(c2cc1OCCCN(C)C)C(=O)c1cc2c(cc1-3)OCO2 [Compound 23, 2-(3-(Dimethylamino)propoxy)-3-methoxy-6-(3-morpholinopropyl)-5H-[1,3]dioxolo[4′,5′:5,6]indeno[1,2-c]isoquinoline-5,12(6H)-dione]
Top1 inhibitory activity (level) [3]: +++ | Top1 (compound-induced DNA cleavage due to Top1 inhibition) [3]: +++ | IC50 [2, 12]: 12 to 37 µM | IC50 [2, 13]: 12 to 37 µM

Structure (SMILES): O=C1c2cc3c(cc2-c2c1c1ccc(Cl)cc1c(=O)n2CCCNCCO)OCO3 [Compound 41]
GI50 [1]: 0.229 µM | IC50 [2, 11]: 1 to 12 µM

Structure (SMILES): COc1cc2c(=O)n(CCCN3CCOCC3)c3c(c2cc1OCC(=O)NN)C(O)c1cc2c(cc1-3)OCO2 (centres unmarked) [Compound 31, 2-((12-Hydroxy-3-methoxy-6-(3-morpholinopropyl)-5-oxo-6,12-dihydro-5H-[1,3]dioxolo[4′,5′:5,6]indeno[1,2-c]isoquinolin-2-yl)oxy)acetohydrazide]
Top1 inhibitory activity (level) [3]: + or ++ | Top1 (compound-induced DNA cleavage due to Top1 inhibition) [3]: + | IC50 [2, 12]: > 111 µM

Structure (SMILES): O=C1c2cc3c(cc2-c2c1c1ccc(F)cc1c(=O)n2CCCN1CCOCC1)OCO3 [Compound 37]
IC50 [2, 11]: > 111 µM

Structure (SMILES): O=C1c2cc3c(cc2-c2c1c1ccc(F)cc1c(=O)n2CCCNCCO)OCO3 [Compound 38]
GI50 [1]: 0.055 µM | IC50 [2, 11]: 1 to 12 µM

The next lines start with results.

melting point: 215 to 217 °C
Structure (SMILES): COc1cc2c3c(n(CCCNCCC4COCCN4)c(=O)c2cc1OC)-c1cc2c(cc1C3=O)OCO2 (centres unmarked) [Compound 5x, 6-[(3-Morpholylethylamino)-1-propyl]-5,6-dihydro-2,3-dimethoxy-8,9-methylenedioxy-5,11-dioxo-11H-indeno[1,2-c]isoquinoline]

melting point: 290 to 292 °C
Structure (SMILES): COC1C=c2c3c([nH]c(=O)c2=CC1(CCCN1CCOCC1)OC)-c1cc2c(cc1C3=O)OCO2 (centres unmarked) [Compound 5q, 3-[(Morpholin-4-yl)-1-propyl]-5,6-dihydro-2,3-dimethoxy-8,9-methylenedioxy-5,11-dioxo-11H-indeno[1,2-c]isoquinoline]

melting point: 175 to 178 °C
Structure (SMILES): Cl.NCCCCCCCCCCCCn1c2c(c3ccccc3c1=O)C(=O)c1ccccc1-2 [Compound 5av, 6-(12-Aminododecyl)-5,6-dihydro-5,11-dioxo-11H-indeno[1,2-c]isoquinoline Hydrochloride]
GI50 [4]: 18.2 µM | GI50 [5]: 13.5 µM | GI50 [6]: 17 µM | GI50 [7]: 14.8 µM | GI50 [8]: 17.8 µM | GI50 [9]: 19.1 µM | MGM (mean GI50 across cell lines) ([1]; Table 1, average GI50 of all cell lines tested (approximately 55), test range 10^−8 to 10^−4 molar): 18.2 µM | GI50 [10]: 19.5 µM

melting point: 306 to 308 °C
Structure (SMILES): COC1C=c2c3c([nH]c(=O)c2=CC1(CCCN1CCSCC1)OC)-c1cc2c(cc1C3=O)OCO2 (centres unmarked) [Compound 5r, 3-[(Thiomorpholin-4-yl)-1-propyl]-5,6-dihydro-2,3-dimethoxy-8,9-methylenedioxy-5,11-dioxo-11H-indeno[1,2-c]isoquinoline]
